Measured values as given in patent publication US20220243177A1, “METHODS OF CULTURING QUIESCENT HEMATOPOIETIC STEM CELLS AND TREATMENT METHODS” (priority 2019, published 2022).

Assays:
Assay type in all cases: cell-based, mouse
[1] = tested on: MMP-low and MMP-high HSCs; assay: Autophagic vacuole formation / lysosomal localization of mitochondria (confocal immunofluorescence)
From the text: Immunofluorescence Staining, Imaging, and Analysis—Super Resolution Confocal Microscopy: Images were acquired with a Zeiss LSM 880 confocal microscope equipped with Airyscan Super Resolution Imaging module, using a 100×/1.46 Alpha Plan Apochromat objective lens (Zeiss MicroImaging, Jena, Germany) with “optimal” (Nyquist) XY scaling. Z stacks through the entire cell were acquired at an […] (at least 20 optical sections) using a pixel dwell time of >50 microseconds and field dimensions of […] (20 MMP-low and 20 MMP-high HSCs analyzed). This was followed by Airyscan image processing (set at auto but rarely over 6.2) and analyses using ZEN image acquisition and processing software (ZEN blue/black). Maximum intensity projections shown in the figures were also obtained using ZEN Blue software.
Lysosomal Localization of Mitochondria. FACS-sorted MMP-low and MMP-high HSCs (LSKCD150^+CD48^-MMP-low/-high) were treated with DMSO control or leupeptin […] for 4 hours. HSCs were then fixed and imaged for TOM20 (mitochondria) and LAMP1 (lysosomes).
Autophagic Vacuole Formation. Accumulation of autophagy substrates, Translocase of outer membrane 20 (TOM20) or Map11c3a (LC3), was determined in the presence of amino acid-containing (DMSO) or -starved amino acid-depleted media, v-ATPase inhibitor concanamycin A (ConA 40nM), inhibitor of autophagosome-autolysosome fusion chloroquine (CQ, […]), or protease inhibitor, leupeptin […] following guidelines outlined for study of autophagy (Klionsky et al., “Guidelines for the Use and Interpretation of Assays for Monitoring Autophagy (3rd Edition),” Autophagy 12(1): 1-222 (2016) and Martinez-Lopez et al., “Autophagy Proteins Regulate ERK Phosphorylation,” Nat. Commun. 4: 2799 (2013), which are hereby incorporated by reference in their entirety). In brief, FACS-sorted
MMP-low and MMP- high HSCs were cultured in the presence or absence of indicated inhibitors for 4, 5, or 18 hours following which cells were subjected to immunofluorescence assays for TOM20, LC3 and/or LAMP1 or LAMP2 as described above. Analyses were performed to quantify the turnover of indicated protein in lysosomes by evaluating the accumulation of TOM20 or LC3 in the presence versus absence of an inhibitor. TOM20 and LC3 flux were determined by subtracting the colocalized value of inhibitor-untreated TOM20 or LC3 with LAMP1 from corresponding inhibitor-treated values. Images were captured using a Zeiss LSM880 Airyscan confocal microscope using 100 X objectives (Leica), and percentage colocalization was calculated using the JACoP plugin (NIH ImageJ).
Mitochondrial and Lysosome Morphology: Freshly isolated HSCs were analyzed for mitochondrial morphology. Each individual HSC (150 total) was analyzed by using Arivis Vision 4D software and classified as either fragmented or not fragmented in accordance with number of surfaces. Cells that fulfilled the definition of ‘fragmented’ contained 3 or more individual mitochondrial surfaces (Kask et al., “Fluorescence-intensity Distribution Analysis and Its Application in Biomolecular Detection Technology,” Proc. Natl. Acad. Sci. USA 96(24): 13756-13761 (1999), which is hereby incorporated by reference in its entirety). Lysosomes' fluorescence intensity or area profiling was calculated using ImageJ software enabling the detection of fluorescently labeled […] boundaries (lysosomal marker LAMP1), as reflected by sharp increases or decreases in fluorescence intensity. Channels displaying fluorescence for either mitochondria or lysosomes were thresholded with the IsoData option to delimit the boundaries of mitochondrial networks and lysosome morphology. The resulting outlines were measured using the analyzed particles option to determine the size of distinct particles representing mitochondrial networks or lysosomes. More than 50 cells/condition/experiment were analyzed for lysosomes. […]

[2] = tested on: MMP-low and MMP-high HSCs; assay: Long term culture-initiating cell (LTC-IC) assay
Description: Long Term Culture-Initiating Cell (“LTC-IC”) Assay: Long-term cultures were initiated as described in Lemieux et al., “Characterization and Purification of a Primitive Hematopoietic Cell Type in Adult Mouse Marrow Capable of Lymphomyeloid Differentiation in Long-Term Marrow ‘Switch’ Cultures,” Blood 86: 1339-1347 (1995), which is hereby incorporated by reference in its entirety. […] The frequency of long-term culture-initiated cells (“LTC-ICs”) was determined by limiting dilution and applying Poisson distribution statistics as described in Hu & Smyth, “ELDA: Extreme Limiting Dilution Analysis for Comparing Depleted and Enriched Populations in Stem Cell and Other Assays,” J. Immunol. Methods 347: 70-78 (2009), which is hereby incorporated by reference in its entirety.

[3] = tested on: MMP-low and MMP-high HSCs of CAG-RFP-EGFP-LC3 bone marrow; assay: CAG-RFP-EGFP-LC3 assay; conditions: ConA 40 nM, 3 hours; superior to starving condition
Description: CAG-RFP-EGFP-LC3 Assay. Total BM cells from CAG-RFP-EGFP-LC3 mice were cultured in StemSpan with SCF (10 ng/mL) and TPO (20 ng/mL) at 8×10^6 cells/ mL. Cells were either incubated with ConA (40 nM), chloroquine (CQ, […]), leupeptin ([…]) or DMSO control, or -starved amino acid-depleted RPMI 1640 media for 3 hours to induce autolysosome accumulation. Both GFP and mRFP are expressed in a single transgene, both green and red fluorescence is emitted from the same LC3 molecule, with 1:1 stoichiometry, thus allowing a more-accurate quantification of autophagosomes and autolysosomes measured by flow cytometry 3 hours post-treatment. Given the fluorescent incompatibility, only frequency of HSC with autophagosome (RFP^+GFP^+-LC3) or autolysosome formation (RFP^+-LC3) normalized to conditions with MMP-low against MMP-high HSCs was determined.

[4] = aged HSCs, Con A 40 nM, two days

## C/C=C/[C@H]1O[C@@](O)([C@@H](C)[C@H](O)[C@H](C)[C@H]2OC(=O)/C(OC)=C/C(C)=C/[C@@H](C)[C@@H](O)[C@@H](CC)[C@@H](O)[C@H](C)C/C(C)=C/C=C/[C@@H]2OC)C[C@@H](O[C@H]2C[C@@H](O)[C@H](OC(N)=O)[C@@H](C)O2)[C@@H]1C [ConA, concanamycin A]
[1]; 5-hour ConA treatment, 40 nM
  fold increase of enlarged lysosomes, MMP-high HSCs: 35
  fold increase of enlarged lysosomes, MMP-low HSCs: 32
[1]; ConA 40 nM
  increase of lysosomal localization of TOM20, MMP-high HSCs: ~3 fold
  increase of lysosomal localization of TOM20, MMP-low HSCs: ~1.3 fold
  mitochondrial fragmentation: enhanced mitochondrial fragmentation
[1]; ConA 40 nM, 18 hours
  increase in LC3-positive puncta, MMP-high HSCs: 3 fold
  increase in LC3-positive puncta, MMP-low HSCs: 1.33 fold
[1]; ConA 40 nM, leupeptin 100 mM, chloroquine 40 mM, 18 hours, MMP-low and MMP-high HSCs
  autolysosomal degradation (colocalization of LAMP1 with LC3): dramatically prevented autolysosomal degradation
[2]; ConA 40 nM, 48-hour or 4-day
  enhanced frequency of LTC-ICs, MMP-high HSCs: 2.5 fold
  enhanced frequency of LTC-ICs, MMP-low HSCs: 1.5 fold
[2]; ConA 40 nM, two days
  size of LTC-IC-derived colonies: increased size of colonies
[2]; [4]
  LTC-IC-derived colonies from aged HSCs: increased the LTC-IC-derived colonies
  number of LTC-IC recovered from aged HSC cultures: improved the number
[3]
  frequency of autolysosome (RFP+)-accumulated MMP-high and MMP-low HSCs: specifically promoted the frequency
